Here are results for 19 compounds from patent publication US20210395239A1 (Hoffmann-La Roche Inc., priority 2018, published 2021).

The assay deals with T1, human TLR8 (Homo sapiens, UniProt Q9NR97).
T1 construct: host or cells: HEK293 (HEK-Blue hTLR8)
T1 sequence (Q9NR97 27-1041): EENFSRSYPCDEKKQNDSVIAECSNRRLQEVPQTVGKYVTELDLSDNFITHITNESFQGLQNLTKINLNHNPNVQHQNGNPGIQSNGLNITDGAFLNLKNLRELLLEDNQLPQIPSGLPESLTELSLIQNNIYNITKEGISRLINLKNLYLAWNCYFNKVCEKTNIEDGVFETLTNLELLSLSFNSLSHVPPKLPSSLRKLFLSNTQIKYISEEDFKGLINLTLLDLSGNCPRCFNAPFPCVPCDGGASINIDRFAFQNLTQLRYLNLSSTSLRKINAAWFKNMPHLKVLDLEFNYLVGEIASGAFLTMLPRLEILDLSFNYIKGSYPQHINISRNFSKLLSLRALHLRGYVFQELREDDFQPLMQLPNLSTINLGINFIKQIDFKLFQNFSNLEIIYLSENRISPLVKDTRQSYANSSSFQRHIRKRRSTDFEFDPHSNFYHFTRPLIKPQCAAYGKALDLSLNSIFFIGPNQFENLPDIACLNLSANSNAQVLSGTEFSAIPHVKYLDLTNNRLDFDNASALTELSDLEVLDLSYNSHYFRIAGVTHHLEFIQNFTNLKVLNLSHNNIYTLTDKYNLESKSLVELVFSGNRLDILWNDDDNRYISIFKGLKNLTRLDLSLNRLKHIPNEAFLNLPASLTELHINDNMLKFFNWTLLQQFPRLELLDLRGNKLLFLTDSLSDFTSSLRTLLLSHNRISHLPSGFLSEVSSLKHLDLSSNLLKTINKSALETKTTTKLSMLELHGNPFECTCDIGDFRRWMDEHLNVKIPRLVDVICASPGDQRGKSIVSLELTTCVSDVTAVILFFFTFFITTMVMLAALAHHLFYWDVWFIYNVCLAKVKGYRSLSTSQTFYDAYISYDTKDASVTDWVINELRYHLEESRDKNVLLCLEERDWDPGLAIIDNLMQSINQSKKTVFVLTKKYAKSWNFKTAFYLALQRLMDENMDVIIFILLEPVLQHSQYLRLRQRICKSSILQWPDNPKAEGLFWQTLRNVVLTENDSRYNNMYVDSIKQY
Description: HEK293-Blue-hTLR-8 cells assay (SEAP reporter, R848 stimulation). Type of assay: cell-based. The conditions noted are these: HEK293-Blue-hTLR8 cells, R848, 20 hrs; read-out: HEK/hTLR8 IC50. From the text: HEK293-Blue-hTLR-8 Cells Assay:
A stable HEK293-Blue-hTLR-8 cell line was purchased from InvivoGen (Cat. #: hkb-ht1r8, San Diego, Calif., USA). These cells were originally designed for studying the stimulation of human TLR8 by monitoring the activation of NF-κB. A SEAP (secreted embryonic alkaline phosphatase) reporter gene was placed under the control of the IFN-β minimal promoter fused to five NF-κB and AP-1-binding sites. The SEAP was induced by activating NF-κB and AP-1 via stimulating HEK-Blue hTLR8 cells with TLR8 ligands. Therefore the reporter expression was declined by TLR8 antagonist under the stimulation of a ligand, such as R848, for incubation of 20 hrs. The cell culture supernatant SEAP reporter activity was determined using QUANTI-Blue™ kit (Cat. #: rep-qb1, Invivogen, San Diego, Ca, USA) at a wavelength of 640 nm, a detection medium that turns purple or blue in the presence of alkaline phosphatase.
HEK293-Blue-hTLR8 cells were incubated at a density of 250,000˜450,000 cells/mL in a volume of 170 μL in a 96-well plate in Dulbecco's Modified Eagle's medium (DMEM) containing 4.5 g/L glucose, 50 U/mL penicillin, […], […], 2 mM L-glutamine, 10% (v/v) heat-inactivated fetal bovine serum with addition of 20 μL test compound in a serial dilution in the presence of final DMSO at 1% and 10 μL of 60 uM R848 in above DMEM, perform incubation under 37° C. in a CO2 incubator for 20 hrs. Then 20 μL of the supernatant from each well was incubated with 180 μL Quanti-blue substrate solution at 37° C. for 2 hrs and the absorbance was read at 620˜655 nm using a spectrophotometer. The signaling pathway that TLR8 activation leads to downstream NF-κB activation has been widely accepted, and therefore similar reporter assay was modified for evaluating TLR8 antagonist.
As for `COC1CN(c2nccc(N3CCN(C[C@H]4CN(c5ccc(C#N)c6ncccc56)C[C@@H](C)O4)CC3)n2)CC1N` (stereo in doubt) [Example 93, 5-[(2S,6R)-2-[[4-[2-[(3R,4S)-3-amino-4-methoxy-pyrrolidin-1-yl]pyrimidin-4-yl]piperazin-1-yl]methyl]-6-methyl-morpholin-4-yl]quinoline-8-carbonitrile], the IC50 worked out at 3 nM. As for `C[C@@H]1CN(c2ccc(C#N)c3ncccc23)C[C@H](CN2CCC(c3cccc(N4CCNCC4)c3)C2)O1` (stereo partly drawn) [Example 1, 5-[(2R,6S)-2-methyl-6-[[3-(3-piperazin-1-ylphenyl)pyrrolidin-1-yl]methyl]morpholin-4-yl]quinoline-8-carbonitrile], the figure is 40 nM; as for `C[C@@H]1CN(c2ccc(C#N)c3ncccc23)C[C@H](CN2CCC(c3cccc(C4CCNCC4)c3)CC2)O1` [Example 2, 5-[(2R,6S)-2-methyl-6-[[4-[3-(4-piperidyl)phenyl]-1-piperidyl]methyl]morpholin-4-yl]quinoline-8-carbonitrile], 26 nM. As for `C[C@@H]1CN(c2ccc(C#N)c3ncccc23)C[C@H](CN2CC(c3ccc(N4CCNCC4)cc3)C2)O1` [Example 3, 5-[(2R,6S)-2-methyl-6-[[3-(4-piperazin-1-ylphenyl)azetidin-1-yl]methyl]morpholin-4-yl]quinoline-8-carbonitrile], the figure is 9 nM.

Turning to `C[C@@H]1CN(c2ccc(C#N)c3ncccc23)C[C@H](CN2CC(c3cccc(N4CCNCC4)c3)C2)O1` [Example 4, 5-[(2R,6S)-2-methyl-6-[[3-(3-piperazin-1-ylphenyl)azetidin-1-yl]methyl]morpholin-4-yl]quinoline-8-carbonitrile], the IC50 is 17 nM.

For the compound `C[C@@H]1CN(c2ccc(C#N)c3ncccc23)C[C@H](CN2CCN(c3ccc(CN)cc3)CC2)O1` [Example 5, 5-[(2S,6R)-2-[[4-[4-(aminomethyl)phenyl]piperazin-1-yl]methyl]-6-methyl-morpholin-4-yl]quinoline-8-carbonitrile], the IC50 was found to be 33 nM.

Regarding `C[C@@H]1CN(c2ccc(C#N)c3ncccc23)C[C@H](CN2CCN(c3cnc(N4CCNCC4)cn3)CC2)O1` [Example 6, 5-[(2R,6S)-2-methyl-6-[[4-(5-piperazin-1-ylpyrazin-2-yl)piperazin-1-yl]methyl]morpholin-4-yl]quinoline-8-carbonitrile], the IC50 came out at 7 nM. With `COc1cc(N2CCN(C[C@H]3CN(c4ccc(C#N)c5ncccc45)C[C@@H](C)O3)CC2)nc(N2CCNCC2)n1` [Example 91, 5-[(2S,6R)-2-[[4-(6-methoxy-2-piperazin-1-yl-pyrimidin-4-yl)piperazin-1-yl]methyl]-6-methyl-morpholin-4-yl]quinoline-8-carbonitrile], the IC50 was 8 nM. As for `CO[C@@H]1CN(c2nccc(N3CCN(C[C@H]4CN(c5ccc(C#N)c6ncccc56)C[C@@H](C)O4)CC3)n2)C[C@@H]1N` [Example 92, 5-[(2S,6R)-2-[[4-[2-[(3S,4R)-3-amino-4-methoxy-pyrrolidin-1-yl]pyrimidin-4-yl]piperazin-1-yl]methyl]-6-methyl-morpholin-4-yl]quinoline-8-carbonitrile], the figure is 2 nM; as for `C[C@@H]1CN(c2ccc(C#N)c3ncccc23)C[C@H](CN2CCN(c3ncc(F)c(N4CCNCC4)n3)CC2)O1` [Example 94, 5-[(2S,6R)-2-[[4-(5-fluoro-4-piperazin-1-yl-pyrimidin-2-yl)piperazin-1-yl]methyl]-6-methyl-morpholin-4-yl]quinoline-8-carbonitrile], 6 nM; as for `C[C@@H]1CN(c2ccc(C#N)c3ncccc23)C[C@H](CN2CCN(c3ccnc(N4C[C@@H](F)[C@@H](N)C4)n3)CC2)O1` [Example 95, 5-[(2S,6R)-2-[[4-[2-[(3S,4R)-3-amino-4-fluoro-pyrrolidin-1-yl]pyrimidin-4-yl]piperazin-1-yl]methyl]-6-methyl-morpholin-4-yl]quinoline-8-carbonitrile], 3 nM. As for `C[C@@H]1CN(c2ccc(C#N)c3ncccc23)C[C@H](CN2CCN(c3ccnc(N4C[C@@H](N)[C@H](F)C4)n3)CC2)O1` [Example 96, 5-[(2S,6R)-2-[[4-[2-[(3R,4R)-3-amino-4-fluoro-pyrrolidin-1-yl]pyrimidin-4-yl]piperazin-1-yl]methyl]-6-methyl-morpholin-4-yl]quinoline-8-carbonitrile], the figure is 4 nM. As for `CO[C@H]1CN(c2ccnc(N3CCN(C[C@H]4CN(c5ccc(C#N)c6ncccc56)C[C@@H](C)O4)CC3)n2)C[C@@H]1N` [Example 97, 5-[(2S,6R)-2-[[4-[4-[(3S,4S)-3-amino-4-methoxy-pyrrolidin-1-yl]pyrimidin-2-yl]piperazin-1-yl]methyl]-6-methyl-morpholin-4-yl]quinoline-8-carbonitrile], the figure is 1 nM; as for `CO[C@@H]1CN(c2nccc(N3CCN(C[C@H]4CN(c5ccc(C#N)c6nccnc56)C[C@@H](C)O4)CC3)n2)C[C@H]1N` [Example 98, 8-[(2S,6R)-2-[[4-[2-[(3R,4R)-3-amino-4-methoxy-pyrrolidin-1-yl]pyrimidin-4-yl]piperazin-1-yl]methyl]-6-methyl-morpholin-4-yl]quinoxaline-5-carbonitrile], 1 nM; as for `CO[C@H]1CN(c2nccc(N3CCN(C[C@H]4CN(c5ccc(C#N)c6nccnc56)C[C@@H](C)O4)CC3)n2)C[C@@H]1N` [Example 99, 8-[(2S,6R)-2-[[4-[2-[(3S,4S)-3-amino-4-methoxy-pyrrolidin-1-yl]pyrimidin-4-yl]piperazin-1-yl]methyl]-6-methyl-morpholin-4-yl]quinoxaline-5-carbonitrile], 1 nM. Regarding `C[C@@H]1CN(c2ccc(C#N)c3ncccc23)C[C@H](CN2CCN(c3ccnc(N4C[C@@H](N)[C@@H](F)C4)n3)CC2)O1` [Example 101, 5-[(2S,6R)-2-[[4-[2-[(3R,4S)-3-amino-4-fluoro-pyrrolidin-1-yl]pyrimidin-4-yl]piperazin-1-yl]methyl]-6-methyl-morpholin-4-yl]quinoline-8-carbonitrile], the IC50 is 4 nM.

As to `Cc1cnc(N2CCN(C[C@H]3CN(c4ccc(C#N)c5ncccc45)C[C@@H](C)O3)CC2)nc1N1CCNCC1` [Example 102, 5-[(2R,6S)-2-methyl-6-[[4-(5-methyl-4-piperazin-1-yl-pyrimidin-2-yl)piperazin-1-yl]methyl]morpholin-4-yl]quinoline-8-carbonitrile], the IC50 was found to be 2 nM. As to `C[C@@H]1CN(c2ccc(C#N)c3ncccc23)C[C@H](CN2CCN(c3ccnc(N4C[C@H]5NCCO[C@@H]5C4)n3)CC2)O1` [Example 103, 5-[(2S,6R)-2-[[4-[2-[(4aR,7aR)-3,4,4a,5,7,7a-hexahydro-2H-pyrrolo[3,4-b][1,4]oxazin-6-yl]pyrimidin-4-yl]piperazin-1-yl]methyl]-6-methyl-morpholin-4-yl]quinoline-8-carbonitrile], the IC50 came to 1 nM.

As for `CO[C@H]1CN(c2cc(C)nc(N3CCN(C[C@H]4CN(c5ccc(C#N)c6nccnc56)C[C@@H](C)O4)CC3)n2)C[C@@H]1N` [Example 104, 8-[(2S,6R)-2-[[4-[4-[(3S,4S)-3-amino-4-methoxy-pyrrolidin-1-yl]-6-methyl-pyrimidin-2-yl]piperazin-1-yl]methyl]-6-methyl-morpholin-4-yl]quinoxaline-5-carbonitrile], the IC50 is 1 nM.
